From patent US12384801B2, “Benzothiophene, thienopyridine and thienopyrimidine derivatives for the modulation of sting” (CTXT PTY LTD, priority 2019, dated 2025)
pEC50: −log10 of the molar value.

Legend:
human STING (HAQ) = human STING (HAQ) (Homo sapiens (Human), UniProt Q86WV6, G230A/H232R/R293Q); experiment: Differential scanning fluorimetry (DSF), huSTING (HAQ); type: binding; conditions: compound 100 μM, 2 μM protein, Tm with ligand minus Tm of protein alone (1% DMSO)
Method: (§1) Data were analyzed using “Meltdown analysis” protocol described by Rosa (2015).

WT human STING isoform = WT human STING isoform (Homo sapiens (Human), UniProt Q86WV6, H232R); experiment: THP-1-Dual KI-hSTING-R232 reporter cell line assay; type: cell-based; conditions: 24 h incubation, luminescence, normalized to ML RR-S2 CDA 40 μM; read-out: EC50 THP-1 Dual KI-hSTING-R232 cells
Method: (§2) THP-1 STING Lucia ISG cells (InvivoGen #thpl-isg) were cultured in RPMI-1640 containing 2 mM L-glutamine, 25 mM HEPES, 100 μg/mL Normocin (InvivoGen) and 10% heat-inactivated FBS. Cells were seeded at a density of 7×10^5 cells/mL, maintained at 37° C./5% CO2, and passaged every 3-4 days. Selection pressure was maintained by the addition of 100 μg/mL Zeocin every second passage.
(§3) Assay conditions: cells were harvested and resuspended at a concentration of 5×10^5 cells/mL in fresh growth media. Of this cell preparation 20 μL per well was dispensed into 384 well cell culture plates (Greiner, #781098X) and incubated at 37° C./5% CO2 for 2 hours.
(§4) Concentration Response Curves (commonly 11 doses) were prepared by 2.5 fold serial dilution starting from 10 mM compound stock solution in DMSO. Compound dilutions were transferred into the cell culture plates using a pintool (0.1 μL transfer), control wells were matched for DMSO. Positive control wells received ML RR-S2 CDA (Med Chem Express HY12885B) in 5 μL of media to a final concentration of 40 μM. All other wells received additional 5 μL of media only to equalize volume. The plates were incubated for 24 h at 37° C./5% CO2.
(§5) For the detection step, QUANTI-Luc (InvivoGen #rep-qlc1) was prepared according to manufacturer's instruction and 10 μL were added per well to the culture plates. Plates were shaken for ten seconds on an orbital shaker and left in the dark at room temperature for two minutes, before luminescence was read on a Perkin Elmer Envision plate reader.
(§6) Data analysis: Luminescence raw data was normalized % activity relative to the signal of the positive control wells and negative control wells which were not treated with compound. The following formula was used to calculate normalized % activity from raw signals: % activity=(sample−negative)/(positive−negative)
(§7) The THP-1 STING Lucia ISG cell EC50 provides an assessment of activity at the human HAQ isoform of STING. For assessing compound activity against the WT human STING isoform, an equivalent method was conducted where the cells used were THP-1-Dual KI-hSTING-R232 (InvivoGen #thpd-r232).

human STING (WT) = human STING (WT) (Homo sapiens (Human), UniProt Q86WV6, H232R); experiment: Differential scanning fluorimetry (DSF), huSTING (WT); type: binding; conditions: compound 100 μM, 2 μM protein, Tm with ligand minus Tm of protein alone (1% DMSO)
Method: as §1

[1] = target: human HAQ isoform of STING (Homo sapiens (Human), UniProt Q86WV6, G230A/H232R/R293Q/R71H); experiment: THP-1 STING Lucia ISG reporter cell line assay; type: cell-based; conditions: 24 h incubation, luminescence, normalized to ML RR-S2 CDA 40 μM; read-out: EC50 THP-I STING Lucia ISG cells
Method: as §2, §3, §4, §5, §6, §7

Chain of human STING (HAQ) (Q86WV6 149-345 G230A/H232R/R293Q): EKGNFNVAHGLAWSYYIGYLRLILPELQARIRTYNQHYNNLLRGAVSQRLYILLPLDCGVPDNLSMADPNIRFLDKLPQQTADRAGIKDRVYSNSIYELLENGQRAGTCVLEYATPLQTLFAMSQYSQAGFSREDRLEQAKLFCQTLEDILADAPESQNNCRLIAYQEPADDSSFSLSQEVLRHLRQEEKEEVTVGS
Chain of WT human STING isoform (Q86WV6 whole entry H232R, canonical isoform): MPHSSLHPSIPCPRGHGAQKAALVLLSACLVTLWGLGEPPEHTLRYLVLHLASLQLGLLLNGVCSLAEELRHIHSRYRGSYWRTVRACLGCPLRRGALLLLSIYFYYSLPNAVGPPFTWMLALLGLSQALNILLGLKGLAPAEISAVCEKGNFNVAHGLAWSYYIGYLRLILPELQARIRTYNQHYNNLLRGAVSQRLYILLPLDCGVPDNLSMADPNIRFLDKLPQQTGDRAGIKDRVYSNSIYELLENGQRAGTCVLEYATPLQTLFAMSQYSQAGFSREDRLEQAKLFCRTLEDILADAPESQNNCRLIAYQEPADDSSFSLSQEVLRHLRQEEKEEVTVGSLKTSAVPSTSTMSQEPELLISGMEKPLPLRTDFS
Chain of human HAQ isoform of STING (Q86WV6 whole entry R71H/G230A/H232R/R293Q, canonical isoform): as the sequence (Q86WV6 whole entry H232R, canonical isoform) above, with R71H, G230A, R293Q counted along it
Chain of human STING (WT) (Q86WV6 149-345 H232R): as the sequence (Q86WV6 149-345 G230A/H232R/R293Q) above, with A82G, Q145R counted along it

pEC50 (WT human STING isoform)	DSF huSTING (WT) ΔTm (human STING (WT)) [°C]	pEC50 [1]	ΔTm at 100 µM (human STING (HAQ)) [°C]	ΔTm at 100 µM (human STING (WT)) [°C]	SMILES	DSF huSTING (HAQ) ΔTm (human STING (HAQ)) [°C]
6.71	9.38	6.72	21.4		NC(=O)c1ccc2c(c1)nc(-c1c(C(=O)O)sc3cccc(C(F)(F)F)c13)n2CCn1c(-c2c(C(=O)O)sc3cccc(C(F)(F)F)c23)nc2cc(C(N)=O)ccc21 (single isomer, unassigned) [Example 19.1, 3,3′-(Ethane-1,2-diylbis(5-carbamoyl-1H-benzo[d]imidazole-1,2-diyl))bis(4-(trifluoromethyl)benzo[b]thiophene-2-carboxylic acid)]	
5.44	2.74	5.59			NC(=O)c1ccc2c(c1)nc(-c1c(C(=O)O)sc3cccc(C(F)(F)F)c13)n2CCn1c(-c2c(C(=O)O)sc3cccc(C(F)(F)F)c23)nc2cc(C(N)=O)ccc21 (single isomer, unassigned) [Example 19.2, 3,3′-(Ethane-1,2-diylbis(5-carbamoyl-1H-benzo[d]imidazole-1,2-diyl))bis(4-(trifluoromethyl)benzo[b]thiophene-2-carboxylic acid)]	12.26
6.89		6.59	45.5	37.7	COc1c(C(N)=O)ccc2c1nc(-c1c(C(=O)O)sc3cccc(Cl)c13)n2CCn1c(-c2c(C(=O)O)sc3cccc(Cl)c23)nc2c(OC)c(C(N)=O)ccc21 (single isomer, unassigned) [Example 22.1, 3,3′-(Ethane-1,2-diylbis(5-carbamoyl-4-methoxy-1H-benzo[d]imidazole-1,2-diyl))bis(4-chlorobenzo[b]thiophene-2-carboxylic acid)]	
6.30	35.685	5.99			COc1c(C(N)=O)ccc2c1nc(-c1c(C(=O)O)sc3cccc(Cl)c13)n2CCn1c(-c2c(C(=O)O)sc3cccc(Cl)c23)nc2c(OC)c(C(N)=O)ccc21 (single isomer, unassigned) [Example 22.2, 3,3′-(Ethane-1,2-diylbis(5-carbamoyl-4-methoxy-1H-benzo[d]imidazole-1,2-diyl))bis(4-chlorobenzo[b]thiophene-2-carboxylic acid)]	45.31
5.50		5.02			CCOC(=O)c1sc2c(F)ccc(Cl)c2c1-c1nc2cc(C(N)=O)ccc2n1CCn1c(-c2c(C(=O)OCC)sc3c(F)ccc(Cl)c23)nc2cc(C(N)=O)ccc21 [Example A2, Diethyl 3,3′-(ethane-1,2-diylbis(5-carbamoyl-1H-benzo[d]imidazole-1,2-diyl))bis(4-chloro-7-fluorobenzo[b]thiophene-2-carboxylate)]	

The remaining lines, values behind:

SMILES	pEC50 (WT human STING isoform)	DSF huSTING (WT) ΔTm (human STING (WT)) [°C]	pEC50 [1]	ΔTm at 100 µM (human STING (HAQ)) [°C]	ΔTm at 100 µM (human STING (WT)) [°C]	DSF huSTING (HAQ) ΔTm (human STING (HAQ)) [°C]
NC(=O)c1ccc2c(c1)nc(-c1c(C(=O)O)sc3cccc(Cl)c13)n2CCn1c(-c2c(C(=O)O)sc3cccc(Cl)c23)nc2cc(C(N)=O)ccc21 (single isomer, unassigned) [Example 1.2, 3,3′-(Ethane-1,2-diylbis(5-carbamoyl-1H-benzo[d]imidazole-1,2-diyl))bis(4-chlorobenzo[b]thiophene-2-carboxylic acid)]	5.20	−7.14	4.85			0.13
NC(=O)c1ccc2c(c1)nc(-c1c(C(=O)O)sc3c(F)ccc(Br)c13)n2CCn1c(-c2c(C(=O)O)sc3c(F)ccc(Br)c23)nc2cc(C(N)=O)ccc21 (single isomer, unassigned) [Example 20.2, 3,3′-(Ethane-1,2-diylbis(5-carbamoyl-1H-benzo[d]imidazole-1,2-diyl))bis(4-bromo-7-fluorobenzo[b]thiophene-2-carboxylic acid)]	5.24	−4.12	4.83			0.44
CCOC(=O)c1sc2ccnc(OC)c2c1-c1nc2cc(C(N)=O)ccc2n1CCn1c(-c2c(C(=O)OCC)sc3ccnc(OC)c23)nc2cc(C(N)=O)ccc21 [Example 6, Diethyl 3,3′-(ethane-1,2-diylbis(5-carbamoyl-1H-benzo[d]imidazole-1,2-diyl))bis(4-methoxythieno[3,2-c]pyridine-2-carboxylate)]	< 4.40		< 4.40			
CCOC(=O)c1sc2ccccc2c1-c1nc2cc(C(N)=O)ccc2n1CCn1c(-c2c(C(=O)OCC)sc3ccccc23)nc2cc(C(N)=O)ccc21 [Example 8, Diethyl 3,3′-(ethane-1,2-diylbis(5-carbamoyl-1H-benzo[d]imidazole-1,2-diyl))bis(benzo[b]thiophene-2-carboxylate)]	< 4.40		< 4.40			
CCOC(=O)c1sc2cccc(Br)c2c1-c1nc2cc(C(N)=O)ccc2n1CCn1c(-c2c(C(=O)OCC)sc3cccc(Br)c23)nc2cc(C(N)=O)ccc21 [Example 10, Diethyl 3,3′-(ethane-1,2-diylbis(5-carbamoyl-1H-benzo[d]imidazole-1,2-diyl))bis(4-bromobenzo[b]thiophene-2-carboxylate)]	4.90		4.70			
CCOC(=O)c1sc2c(F)ccc(OC)c2c1-c1nc2cc(C(N)=O)ccc2n1CCn1c(-c2c(C(=O)OCC)sc3c(F)ccc(OC)c23)nc2cc(C(N)=O)ccc21 [Example 12, Diethyl 3,3′-(ethane-1,2-diylbis(5-carbamoyl-1H-benzo[d]imidazole-1,2-diyl))bis(7-fluoro-4-methoxybenzo[b]thiophene-2-carboxylate)]	5.04		5.29			
CCOC(=O)c1sc2cccc(C)c2c1-c1nc2cc(C(N)=O)ccc2n1CCn1c(-c2c(C(=O)OCC)sc3cccc(C)c23)nc2cc(C(N)=O)ccc21 [Example 14, Diethyl 3,3′-(1,1′-(ethane-1,2-diyl)bis(5-carbamoyl-1H-benzo[d]imidazole-2,1-diyl))bis(4-methylbenzo[b]thiophene-2-carboxylate)]	< 4.40		< 4.40			
CCOC(=O)c1sc2cccc(C#N)c2c1-c1nc2cc(C(N)=O)ccc2n1CCn1c(-c2c(C(=O)OCC)sc3cccc(C#N)c23)nc2cc(C(N)=O)ccc21 [Example 16, Diethyl 3,3′-(ethane-1,2-diylbis(5-carbamoyl-1H-benzo[d]imidazole-1,2-diyl))bis(4-cyanobenzo[b]thiophene-2-carboxylate)]	< 4.40		< 4.40			
CCOC(=O)c1sc2cccc(C(F)(F)F)c2c1-c1nc2cc(C(N)=O)ccc2n1CCn1c(-c2c(C(=O)OCC)sc3cccc(C(F)(F)F)c23)nc2cc(C(N)=O)ccc21 [Example 18, Diethyl 3,3′-(ethane-1,2-diylbis(5-carbamoyl-1H-benzo[d]imidazole-1,2-diyl))bis(4-(trifluoromethyl)benzo[b]thiophene-2-carboxylate)]	< 4.40		5.43			
CCOC(=O)c1sc2cccc(Cl)c2c1-c1nc2c(OC)c(C(N)=O)ccc2n1CCn1c(-c2c(C(=O)OCC)sc3cccc(Cl)c23)nc2c(OC)c(C(N)=O)ccc21 [Example 21, Diethyl 3,3′-(ethane-1,2-diylbis(5-carbamoyl-4-methoxy-1H-benzo[d]imidazole-1,2-diyl))bis(4-chlorobenzo[b]thiophene-2-carboxylate)]	8.15		7.72	4.33	3.41	
CCOC(=O)c1sc2cccc(OCC)c2c1-c1nc2cc(C(N)=O)ccc2n1CCn1c(-c2c(C(=O)OCC)sc3cccc(OCC)c23)nc2cc(C(N)=O)ccc21 [Example 23, Diethyl 3,3′-(ethane-1,2-diylbis(5-carbamoyl-1H-benzo[d]imidazole-1,2-diyl))bis(4-ethoxybenzo[b]thiophene-2-carboxylate)]	< 4.40		< 4.40			
